Among the test systems are PC-3 prostate; OVCAR-8 ovarian; CCRF-CEM leukemia; TK-10 renal; MDA-MB-435; A549 NSCLC; T-47D breast; EKVX NSCLC; UACC-257 melanoma; SF-539 CNS.
Assay in all cases: DTP human tumour cell line panel, 48 h

The structures appear in SMILES notation.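 96-well plates; 48 h exposure; 5 concentrations. Endpoints by linear interpolation between flanking doses. Not reached: highest tested concentration assigned. At the TGI there is no net growth.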

The term TGI denotes the concentration at which net growth stops. Consider `Cc1nc2c(cc1C(=O)NN)c(=O)n(C)c(=O)n2C`, for which the TGI in the assay on PC-3 prostate, with OVCAR-8 ovarian, in the assay on CCRF-CEM leukemia, with TK-10 renal, in the assay on MDA-MB-435 and with A549 NSCLC was more than 100 µM in each case. Moreover, the TGI with T-47D breast, in the assay with EKVX NSCLC and in the assay on UACC-257 melanoma was more than 100 µM each time.

In the case of `C[C@]12CC[C@H]3[C@@H](CCC4=CC(=O)C=C[C@@]43O)[C@@H]1CCC2=O`, the TGI in the assay with PC-3 prostate, in the assay with SF-539 CNS, with OVCAR-8 ovarian, in the assay with CCRF-CEM leukemia, with MDA-MB-435 and with A549 NSCLC was more than 100 µM throughout. Moreover, the TGI with T-47D breast, with EKVX NSCLC and in the assay on UACC-257 melanoma was more than 100 µM in each case.

Regarding `COc1cc(Oc2nc3ccccc3nc2C(=O)O)cc(OC)c1OC`, the TGI with PC-3 prostate, with OVCAR-8 ovarian, with CCRF-CEM leukemia, in the assay with TK-10 renal, with MDA-MB-435 and in the assay with A549 NSCLC was more than 100 µM each time. The TGI in the assay on T-47D breast, in the assay with EKVX NSCLC and in the assay on UACC-257 melanoma was more than 100 µM throughout.

Consider `Cc1cc(O)c(C(C)C)cc1NC(=O)Nc1cccc2ccccc12`, for which the TGI in the assay with PC-3 prostate was 29.2 µM; in the assay with OVCAR-8 ovarian, more than 100 µM; in the assay with TK-10 renal, 32.5 µM; with MDA-MB-435, 31.1 µM; with A549 NSCLC, 45.4 µM; in the assay on T-47D breast, more than 100 µM. Besides, the TGI in the assay on EKVX NSCLC was 62.7 µM; in the assay with UACC-257 melanoma it was 33.4 µM.

As to `O=S(=O)(c1cc(Cl)ccc1Cl)N1CCN(S(=O)(=O)c2cc(Cl)ccc2Cl)CC1`, the TGI in the assay with PC-3 prostate, in the assay with SF-539 CNS, in the assay with OVCAR-8 ovarian, in the assay on TK-10 renal, in the assay on MDA-MB-435 and in the assay with A549 NSCLC was more than 100 µM throughout. In addition, the TGI in the assay on T-47D breast and with UACC-257 melanoma was more than 100 µM throughout.

For `Cc1cc(S(=O)(=O)Nc2nc3ccsc3c(=O)n2N)c(S)cc1Cl`, the TGI in the assay on PC-3 prostate, in the assay on SF-539 CNS, in the assay with OVCAR-8 ovarian, with CCRF-CEM leukemia, in the assay with TK-10 renal and in the assay on MDA-MB-435 was more than 100 µM in each case. For the same molecule, the TGI in the assay on A549 NSCLC, in the assay with EKVX NSCLC and with UACC-257 melanoma was more than 100 µM each time.

For `CO/C(=N\N=C\c1ccc(Cl)cc1)c1ccncc1`, the TGI in the assay on SF-539 CNS, in the assay with OVCAR-8 ovarian, in the assay with CCRF-CEM leukemia, in the assay with TK-10 renal, with A549 NSCLC and with EKVX NSCLC was more than 100 µM each time. Further, the TGI with UACC-257 melanoma is more than 100 µM.

Take `O=C1COC(c2ccccc2O)=NN1CCCN1CCCC1`: the TGI with PC-3 prostate, with SF-539 CNS, in the assay on OVCAR-8 ovarian, in the assay on TK-10 renal, in the assay with MDA-MB-435 and in the assay with A549 NSCLC was more than 100 µM in each case. The TGI with T-47D breast, with EKVX NSCLC and with UACC-257 melanoma was more than 100 µM each time.

Turning to `O=[N+]([O-])c1ccc2c(c1)nc(Cc1ccccc1)n2C[C@@H]1CCCN2CCCCC12` (stereo not given in full), the TGI in the assay on PC-3 prostate is more than 100 µM; in the assay on OVCAR-8 ovarian it was more than 100 µM; in the assay on CCRF-CEM leukemia, 50.2 µM; in the assay on TK-10 renal, more than 100 µM; in the assay on MDA-MB-435 it was 35.5 µM; with A549 NSCLC, more than 100 µM. In addition, the TGI with T-47D breast is more than 100 µM; in the assay on EKVX NSCLC, 62 µM; in the assay on UACC-257 melanoma, 31.4 µM.

As to `CC(=O)Nc1ccc2c(C(=O)O)c(C)c(=O)[nH]c2n1`, the TGI in the assay on PC-3 prostate, in the assay on SF-539 CNS, in the assay with OVCAR-8 ovarian, in the assay with TK-10 renal, with MDA-MB-435 and in the assay with A549 NSCLC was more than 100 µM each time. The TGI in the assay with T-47D breast, in the assay with EKVX NSCLC and with UACC-257 melanoma was more than 100 µM throughout.

Take `COc1cc2c(cc1OC)C1CN3C(=O)CCC3C(O)C1c1cc(OC)c(OC)cc1-2` (stereo not given): the TGI with OVCAR-8 ovarian, in the assay on CCRF-CEM leukemia, in the assay on TK-10 renal, in the assay with MDA-MB-435, in the assay on A549 NSCLC and in the assay with T-47D breast was more than 100 µM in each case. Besides, the TGI with EKVX NSCLC and in the assay on UACC-257 melanoma was more than 100 µM each time.

Regarding `CCOC(=O)C1=CN=C2C(=O)N(c3ccccc3)N(C)C2(C)C1=N` (stereo not given), the TGI with PC-3 prostate, in the assay with SF-539 CNS, in the assay with OVCAR-8 ovarian, with CCRF-CEM leukemia, in the assay with TK-10 renal and in the assay on MDA-MB-435 was more than 100 µM each time. Besides, the TGI in the assay with A549 NSCLC, in the assay on EKVX NSCLC and in the assay on UACC-257 melanoma was more than 100 µM in each case.

On to `CC1(C)CCC[C@]2(C)[C@@H]1CC[C@@]13O[C@@H]1C1=C(CO)C(=O)O[C@]14O[C@@H]4[C@@H]23`, for which the TGI in the assay on PC-3 prostate is 25.5 µM; in the assay with SF-539 CNS, 37.6 µM; in the assay on OVCAR-8 ovarian, 26.7 µM; in the assay with TK-10 renal it was 38 µM; with MDA-MB-435 it was more than 53.1 µM; in the assay with A549 NSCLC, 23.5 µM. Also, the TGI with T-47D breast was more than 100 µM; in the assay with EKVX NSCLC it was 24.9 µM; in the assay on UACC-257 melanoma, 35.8 µM.

Regarding `CC1=NN(c2cccc(Cl)c2)C2(C1)C(Cl)C(=O)N2c1nc2ccccc2s1` (stereo not given), the TGI with PC-3 prostate was 63.8 µM; in the assay with OVCAR-8 ovarian, more than 100 µM; in the assay on TK-10 renal, more than 100 µM; in the assay with MDA-MB-435, more than 100 µM; in the assay on A549 NSCLC it was 76.2 µM; in the assay on T-47D breast it was 97.4 µM. Further, the TGI in the assay on EKVX NSCLC and with UACC-257 melanoma was more than 100 µM each time.

Regarding `CN(C)N=Nc1ccc([N+](=O)[O-])cc1C(N)=O`, the TGI in the assay on SF-539 CNS, in the assay on OVCAR-8 ovarian, with CCRF-CEM leukemia, in the assay with A549 NSCLC, with EKVX NSCLC and with UACC-257 melanoma was more than 100 µM each time.

Regarding `CN(C)CCCn1c(Cc2ccccc2)nc2cc(C(F)(F)F)ccc21`, the TGI was more than 100 µM in the assay with PC-3 prostate; more than 100 µM in the assay with OVCAR-8 ovarian; 40.3 µM in the assay on CCRF-CEM leukemia; 98.4 µM in the assay on TK-10 renal; 32.4 µM in the assay on MDA-MB-435; 31.8 µM with A549 NSCLC. Moreover, the values for the TGI in the assay on T-47D breast, with EKVX NSCLC and in the assay on UACC-257 melanoma were 50.7 µM, 67.6 µM and 34.2 µM, respectively.

(Values after PubChem BioAssay (NCI).)
